Values of other authors in patent US20080008798A1, “Salts of astaxathin esters” (priority 2002, published 2008).

What was measured:
[1] = tested on: flesh pigmentation; details: feeding non-formulated astaxanthin
[2] = per week; storage of the manufactured feed under ambient conditions

contained pigment lost through degradation during storage [2]: about 2%
Compound: CC1=C(/C=C/C(C)=C/C=C/C(C)=C/C=C/C=C(C)/C=C/C=C(C)/C=C/C2=C(C)C(=O)[C@@H](O)CC2(C)C)C(C)(C)C[C@H](O)C1=O [astaxanthin]
pigmentation effect [1]: almost no pigmentation effect
